The test relates to NLRP3 (IL-1β secretion from THP-1 cells). The experiment in a line: IL-1β secretion assay in 384-well plates, PMA differentiated THP-1 cells, LPS and nigericin stimulation. The test is classed as cell-based. The note with it: Homo sapiens; THP-1 cells, PMA 5 ng/mL, LPS 25 ng/mL, nigericin, IL-1β ELISA, 384-well; read-out: Activity. As for the experimental part:
Compounds as provided herein were tested in the following assay. […] Freezing medium was made up of 90% FBS and 10% DMSO. THP-1 cells were removed from the liquid nitrogen and placed into a 37° C. water bath to thaw, until signs of ice dissipated. The cells were then added to 9 mL of warm cell culture medium and centrifuged for 5 minutes at 1000 rpm. The supernatant was discarded, and the cells were resuspended in new cell culture medium. The THP-1 cells were then split and cultured in the cell culture medium, being passaged every 2-3 days (5×10^5 cells/mL passaged every two days, 3×10^5 cells/mL passaged every three days). Cell density was maintained between 5×10^5-1.5×10^6 viable cells/mL.
PMA was dissolved in DMSO to make a stock solution at 5 mg/mL and stored in 10 µl aliquots at -20° C. for single use. PMA is added to normal growth medium. LPS was diluted with 1 mL of water solution to provide a 1 mg/mL stock solution and stored in 15 µl aliquots at -20° C. for single use. Nigericin is diluted in ice cold 100% ethanol to 5 mg/mL (6.7 mM) and stored in 75 µL aliquots at -20° C. for single use. […] The two control conditions used to qualify and normalize test compound dose-response curves were as follows: High Control = 25 ng/mL LPS, 5 µM Nigericin, 0.5% DMSO, Low Control = 25 ng/mL, LPS, 0.5% DMSO.
THP-1 cells were diluted to provide a suspension at a concentration of 1.0×10^6 cells/mL with the total volume of suspension required to enable the desired number of assay plates. The growth media was supplemented with PMA (5 ng/mL final concentration) and the cells were incubated at 37° C. under a humidified atmosphere of 5% CO2 for 40 h.
All media was carefully aspirated from each culture flask. The cells were washed carefully with 1x DPBS. The cells were then briefly digested with trypsin LE for 5 minutes at 23° C. and immediately resuspended in cell growth media. After resuspension, the cells were centrifuged at 1000 rpm for 3 minutes and the supernatant was discarded. The cells were resuspended in DPBS and once again centrifuged at 1000 rpm for 5 minutes. The supernatant was discarded and the cell pellet was resuspended in serum-free media supplemented with LPS (25 ng/mL final concentration) to enable the distribution of 30 K THP-1 cells within 45 µL of media into each well of 384-well PDL-coated plates. The 384-well plates were then incubated at 37° C. under a humidified atmosphere of 5% CO2 for 2 h. Following this period, test compounds were dispensed by Tecan across the desired concentration range with all wells normalized to a final 0.5 % DMSO concentration. The plates were then incubated at 37° C. under a humidified atmosphere of 5% CO2 for 1 h. Following this period, 5 µL of the […] nigericin stock solution was added to each of the appropriate wells and plates were centrifuged at 1000 rpm for 30 seconds. The plates were the immediately reintroduced to the incubator at 37° C. under a humidified atmosphere of 5% CO2 for 2 h. After this time, 35 µL/well of supernatant was collected and transferred into v-bottom plate and centrifuged at 1000 rpm for 1 minute. These supernatant aliquots were analyzed using an IL-Iβ detection kit as described below. If needed, the test samples could be snap frozen and stored at -80° C. until analyzed.
To prepare each ELISA plate, capture antibody (mAb Mt175) was diluted with PBS to a final concentration of 2 µg/mL and then 20 µL of this solution was added to each well of the ELISA plate. Each plate was allowed to incubate overnight at 4° C. The next day, the capture antibody solution was removed and discarded. […] Each ELISA plate was then allowed to incubate for 1 hour at 23° C. After this time, the blocking buffer was removed and discarded. Each ELISA plate was washed 4 times with PBST. During this time, the v-bottomed plates containing the supernatant aliquots from the assay run were centrifuged at 300 g for 5 minutes before transferring 15 µL/well of the supernatant sample to each ELISA plate. […]
Background: ELISA stands for enzyme-linked immunosorbent assay.

For the molecule `CC(C)c1nn(CC(=O)N[C@H]2C[C@@](C)(O)C2)c(=O)cc1-c1cc(F)cc(F)c1` [Example 21, 2-[4-(3,5-difluorophenyl)-6-oxo-3-propan-2-ylpyridazin-1-yl]-N-(cis-3-hydroxy-3-methylcyclobutyl)acetamide], the IC50 is 902 nM.
Regarding `Cc1cccc(-c2cc(=O)n(CC(=O)N[C@H]3C[C@@](C)(O)C3)nc2C(C)C)c1F` [Example 22, 2-[4-(2-fluoro-3-methylphenyl)-6-oxo-3-propan-2-ylpyridazin-1-yl]-N-(cis-3-hydroxy-3-methylcyclobutyl)acetamide], the IC50 amounted to 1570 nM.
As for `Cc1ccc(F)c(-c2cc(=O)n(CC(=O)N[C@H]3C[C@@](C)(O)C3)nc2C(C)C)c1` [Example 23, 2-[4-(2-fluoro-5-methylphenyl)-6-oxo-3-propan-2-ylpyridazin-1-yl]-N-(cis-3-hydroxy-3-methylcyclobutyl)acetamide], the figure is 1890 nM; as for `CC(C)c1nn(CC(=O)N[C@H]2C[C@@](C)(O)C2)c(=O)cc1-c1cc(F)ccc1F` [Example 24, 2-[4-(2,5-difluorophenyl)-6-oxo-3-propan-2-ylpyridazin-1-yl]-N-(cis-3-hydroxy-3-methylcyclobutyl)acetamide], 1900 nM.
For the molecule `CC(C)c1nn(CC(=O)N[C@H]2C[C@@](C)(O)C2)c(=O)cc1-c1cccc(F)c1F` [Example 25, 2-[4-(2,3-difluorophenyl)-6-oxo-3-propan-2-ylpyridazin-1-yl]-N-(cis-3-hydroxy-3-methylcyclobutyl)acetamide], the IC50 came out at 1820 nM.
Consider `Cc1ccccc1-c1cc(=O)n(CC(=O)N[C@H]2C[C@@](C)(O)C2)nc1C(C)C` [Example 26], for which the IC50 was found to be 6660 nM.
`CC(C)c1nn(CC(=O)N[C@H]2C[C@@](C)(O)C2)c(=O)cc1-c1cccc(C2CC2)c1` [Example 27, 2-[4-(3-cyclopropylphenyl)-6-oxo-3-propan-2-ylpyridazin-1-yl]-N-(cis-3-hydroxy-3-methylcyclobutyl)acetamide]: the IC50 came out at 1910 nM.
Turning to `CCOc1cccc(-c2cc(=O)n(CC(=O)N[C@H]3C[C@@](C)(O)C3)nc2C(C)C)c1` [Example 28, 2-[4-(3-ethoxyphenyl)-6-oxo-3-propan-2-ylpyridazin-1-yl]-N-(cis-3-hydroxy-3-methylcyclobutyl)acetamide], the IC50 was 8470 nM.
With `CCN1CCC[C@@H](NC(=O)Cn2nc(C(C)C)c(-c3cccc4ccccc34)cc2=O)C1` [Example 29], the IC50 turned out to be 874 nM.
On to `CCN1CCC[C@@H](NC(=O)Cn2nc(C(C)C)c(-c3cc(F)cc(C4CC4)c3)cc2=O)C1` [Example 30, 2-[4-(3-cyclopropyl-5-fluorophenyl)-6-oxo-3-propan-2-ylpyridazin-1-yl]-N-[(3R)-1-ethylpiperidin-3-yl]acetamide], for which the IC50 was 1300 nM.
For `CCN1CCC[C@@H](NC(=O)Cn2nc(C(C)C)c(-c3cccc(C4CCC4)c3)cc2=O)C1` [Example 31, 2-[4-(3-cyclobutylphenyl)-6-oxo-3-propan-2-ylpyridazin-1-yl]-N-[(3R)-1-ethylpiperidin-3-yl]acetamide], the IC50 stood at 6980 nM.
As to `CCN1CCC[C@@H](NC(=O)Cn2nc(C(C)C)c(-c3cc(F)cc(F)c3F)cc2=O)C1` [Example 32, N-[(3R)-1-ethylpiperidin-3-yl]-2-[6-oxo-3-propan-2-yl-4-(2,3,5-trifluorophenyl)pyridazin-1-yl]acetamide], the IC50 was determined as 649 nM.
For the molecule `CC(C)c1nn(CC(=O)Nc2ncncc2F)c(=O)cc1-c1cccc2ccncc12` [Example 33], the IC50 was determined as 3210 nM.
Consider `CCOc1nn(CC(=O)N[C@H]2C[C@@](C)(O)C2)c(=O)cc1-c1ccccc1` [Example 34], for which the IC50 is 29500 nM.
With `CCc1c(-c2cccc(F)c2)c(C(C)C)nn(CC(=O)Nc2ncncc2F)c1=O` [Example 35, 2-[5-ethyl-4-(3-fluorophenyl)-6-oxo-3-propan-2-ylpyridazin-1-yl]-N-(5-fluoropyrimidin-4-yl)acetamide], the IC50 was found to be 35300 nM.
Turning to `Cc1c(-c2cccc(F)c2)c(C(C)C)nn(CC(=O)Nc2ncncc2F)c1=O` [Example 36, 2-[4-(3-fluorophenyl)-5-methyl-6-oxo-3-propan-2-ylpyridazin-1-yl]-N-(5-fluoropyrimidin-4-yl)acetamide], the IC50 came to 1000 nM.
As to `CC(C)c1nn(CC(=O)Nc2ncncc2F)c(=O)c(C(F)F)c1-c1cccc(F)c1` [Example 37, 2-[5-(difluoromethyl)-4-(3-fluorophenyl)-6-oxo-3-propan-2-ylpyridazin-1-yl]-N-(5-fluoropyrimidin-4-yl)acetamide], the IC50 is 30100 nM.
Consider `Cc1c(-c2cc(F)cc(F)c2)c(C(C)C)nn(CC(=O)Nc2ncncc2F)c1=O` [Example 38, 2-[4-(3,5-difluorophenyl)-5-methyl-6-oxo-3-propan-2-ylpyridazin-1-yl]-N-(5-fluoropyrimidin-4-yl)acetamide], for which the IC50 was determined as 812 nM.
As to `CC(C)c1nn(CC(=O)N[C@@H]2CCCN(C3CC3)C2)c(=O)cc1-c1cccc(F)c1` [Example 39, N-[(3R)-1-cyclopropylpiperidin-3-yl]-2-[4-(3-fluorophenyl)-6-oxo-3-propan-2-ylpyridazin-1-yl]acetamide], the IC50 was 490 nM.
As for `CCN1CCC[C@@H](NC(=O)Cn2nc(C3CCC3)c(-c3cccc(F)c3)cc2=O)C1` [Example 40, 2-[3-cyclobutyl-4-(3-fluorophenyl)-6-oxopyridazin-1-yl]-N-[(3R)-1-ethylpiperidin-3-yl]acetamide], the figure is 1440 nM; as for `CC(C)c1nn(CC(=O)Nc2ncccc2F)c(=O)cc1-c1cccc(F)c1` [Example 41, 2-[4-(3-fluorophenyl)-6-oxo-3-propan-2-ylpyridazin-1-yl]-N-(3-fluoropyridin-2-yl)acetamide], 7210 nM; as for `CC(C)c1nn(CC(=O)Nc2ncncc2F)c(=O)cc1-c1cc(F)cc(F)c1` [Example 42, 2-[4-(3,5-difluorophenyl)-6-oxo-3-propan-2-ylpyridazin-1-yl]-N-(5-fluoropyrimidin-4-yl)acetamide], 320 nM.
In the case of `CC(C)c1nn(CC(=O)Nc2ncc(F)cn2)c(=O)cc1-c1cc(F)cc(F)c1` [Example 44], the IC50 is 236 nM.
Turning to `CC(C)c1nn(CC(=O)Nc2ncc(F)cc2F)c(=O)cc1-c1cc(F)cc(F)c1` [Example 45], the IC50 was determined as 596 nM.
In the case of `CC(C)c1nn(CC(=O)Nc2ncncc2F)c(=O)cc1-c1cc(F)cc(Cl)c1` [Example 46, 2-[4-(3-chloro-5-fluorophenyl)-6-oxo-3-propan-2-ylpyridazin-1-yl]-N-(5-fluoropyrimidin-4-yl)acetamide], the IC50 worked out at 637 nM.
As for `CC(C)c1nn(CC(=O)Nc2ncncc2F)c(=O)cc1-c1cc(F)cc(C2CC2(F)F)c1` (stereo not shown) [Example 47, 2-[4-[3-(2,2-difluorocyclopropyl)-5-fluorophenyl]-6-oxo-3-propan-2-ylpyridazin-1-yl]-N-(5-fluoropyrimidin-4-yl)acetamide], the IC50 came to 8450 nM.
Take `O=C(Cn1nc(C2CC2)c(-c2cc(F)cc(F)c2)cc1=O)Nc1ncncc1F` [Example 48, 2-[3-cyclopropyl-4-(3,5-difluorophenyl)-6-oxopyridazin-1-yl]-N-(5-fluoropyrimidin-4-yl)acetamide]: the IC50 is 1640 nM.
With `O=C(Cn1nc(C2CC2(F)F)c(-c2cc(F)cc(F)c2)cc1=O)Nc1ncncc1F` (stereo not shown) [Example 49, 2-[3-(2,2-difluorocyclopropyl)-4-(3,5-difluorophenyl)-6-oxopyridazin-1-yl]-N-(5-fluoropyrimidin-4-yl)acetamide], the IC50 was 3240 nM.

Source of the values: patent publication US20230348437A1, “COMPOUNDS, COMPOSITIONS AND METHODS” (Denali Therapeutics Inc., priority 2020, published 2023).
